These compounds were tested against interaction between p53 and MDM2 proteins (recombinant GST-tagged MDM2 / p53 peptide) (Homo sapiens, UniProt Q00987) (assay: HTRF assay of inhibition of p53-MDM2 interaction). Details: 0.02% BSA; HTRF GST-MDM2 / biotinylated p53 peptide.
Assay type: binding
Description: The ability of the compounds to inhibit the interaction between p53 and MDM2 proteins was measured by an HTRF (homogeneous time-resolved fluorescence) assay in which recombinant GST-tagged MDM2 binds to a peptide that resembles the MDM2-interacting region of p53 (Lane et al.). Binding of GST-MDM2 protein and p53-peptide (biotinylated on its N-terminal end) is registered by the FRET (fluorescence resonance energy transfer) between Europium (Eu)-labeled anti-GST antibody and streptavidin-conjugated Allophycocyanin (APC).
Test is performed in black flat-bottom 384-well plates (Costar) in a total volume of 40 uL containing: 90 nM biotinylate peptide, 160 ng/ml GST-MDM2, 20 nM streptavidin-APC (PerkinElmerWallac), 2 nM Eu-labeled anti-GST-antibody (PerkinElmerWallac), 0.2% bovine serum albumin (BSA), 1 mM dithiothreitol (DTT) and 20 mM Tris-borate saline (TBS) buffer as follows: Add 10 uL of GST-MDM2 (640 ng/ml working solution) in reaction buffer to each well. Add 10 uL diluted compounds (1:5 dilution in reaction buffer) to each well, mix by shaking Add 20 uL biotinylated p53 peptide (180 nM working solution) in reaction buffer to each well and mix on shaker. Incubate at 37° C. for 1 h. Add 20 uL streptavidin-APC and Eu-anti-GST antibody mixture (6 nM Eu-anti-GST and 60 nM streptavidin-APC working solution) in TBS buffer with 0.2% BSA, shake at room temperature for 30 minutes and read using a TRF-capable plate reader at 665 and 615 nm (Victor 5, Perkin ElmerWallac). If not specified, the reagents were purchased from Sigma Chemical Co.

interaction between p53 and MDM2 proteins (recombinant GST-tagged MDM2 / p53 peptide), sequence (Q00987 whole entry): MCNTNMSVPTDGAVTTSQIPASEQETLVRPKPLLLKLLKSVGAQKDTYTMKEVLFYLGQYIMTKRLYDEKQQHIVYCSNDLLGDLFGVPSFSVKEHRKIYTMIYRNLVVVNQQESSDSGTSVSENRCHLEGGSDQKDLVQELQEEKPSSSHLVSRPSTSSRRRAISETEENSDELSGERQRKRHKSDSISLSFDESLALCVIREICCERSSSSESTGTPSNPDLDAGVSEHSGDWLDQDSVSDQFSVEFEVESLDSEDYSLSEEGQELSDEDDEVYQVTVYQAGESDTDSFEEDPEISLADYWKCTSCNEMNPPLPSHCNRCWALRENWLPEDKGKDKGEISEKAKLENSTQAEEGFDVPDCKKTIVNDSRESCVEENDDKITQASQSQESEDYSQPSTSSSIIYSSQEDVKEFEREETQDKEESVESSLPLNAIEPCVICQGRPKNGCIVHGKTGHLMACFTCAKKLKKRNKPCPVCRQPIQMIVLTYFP

Row | IC50 [nM] | Compound
1 | 108 | Cc1ccc(F)cc1[C@@H]1NC(=O)C[C@H](c2cc(Cl)cnc2OC(C)(C)C(=O)O)[C@@]12C(=O)Nc1cc(Cl)ccc12 [Example 9, chiral (2′S, 3S, 4′R)-6-chloro-4′-[5-chloro-2-(1-hydroxycarbonyl-1-methyl-ethoxy)-pyridin-3-yl]-2′-(5-fluoro-2-methyl-phenyl) spiro[3H-indole-3,3′-piperidine]-2,6′(1H)-dione]
2 | 56 | Cc1ccc(Cl)cc1[C@@H]1NC(=O)C[C@H](c2cc(Cl)cnc2OC(C)(C)C(=O)O)[C@@]12C(=O)Nc1cc(Cl)ccc12 [Example 15, chiral (2′S, 3S, 4′R)-6-chloro-4′-[5-chloro-2-(1-hydroxycarbonyl-1-methyl-ethoxy)-pyridin-3-yl]-2′-(5-chloro-2-methyl-phenyl) spiro[3H-indole-3,3′-piperidine]-2,6′(1H)-dione]
3 | 145 | Cc1ccc(F)cc1[C@@H]1NC(=O)C[C@H](c2cc(Cl)cnc2OC(C)(C)C(=O)O)[C@@]12C(=O)Nc1cc(Cl)ccc12 (racemic) [Example 8, racemic (2′S, 3S, 4′R)-6-chloro-4′-[5-chloro-2-(1-hydroxycarbonyl-1-methyl-ethoxy)-pyridin-3-yl]-2′-(5-fluoro-2-methyl-phenyl) spiro[3H-indole-3,3′-piperidine]-2,6′(1H)-dione]
4 | 135 | Cc1ccc(F)cc1[C@@H]1NC(=O)C[C@H](c2cc(Cl)cnc2OC(C)(C)C(=O)NS(C)(=O)=O)[C@@]12C(=O)Nc1cc(Cl)ccc12 [Example 11, chiral (2′S, 3S, 4′R)-4′-[5-chloro-2-(2-methanesulfonylamino-1,1-methyl-2-oxo-ethoxy)-pyridin-3-yl]-6-chloro-2′-(5-fluoro-2-methyl-phenyl) spiro[3H-indole-3,3′-piperidine]-2,6′(1H)-dione]
